# Legend:
# Type in all cases: cell-based
# [1] = test system: Fusarium oxysporum; experiment: 96-well microtiter fungal growth assay;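 also: percent relative to untreated positive growth controls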
# Text: (§1) Pathogen collection. Isolates of Colletotrichum acutatum Simmonds, Colletotrichum fragariae Brooks, and Colletotrichum gloeosporioides (Penz.) Penz. & Sacc. in Penz. were obtained from B. J. Smith, USDA, ARS, Small Fruit Research Station, Poplarville, Mass. Colletotrichum fragariae (isolate CF63), C. acutatum (isolate CAGoff), and C. gloeosporioides (isolate CG162) were used for all pathogen and bioautography studies. Isolate CF63 is one of the most virulent isolates at infecting strawberry plants and inducing both crown and fruit rot (Smith and Black, 1990). CF63, CAGoff, and CG162 were used as standard test isolates because of our extensive knowledge of these isolates and their known fungicide sensitivity profiles in both bioautography and microtiter formats. The three Colletotrichum species were isolated from strawberry (Fragaria xananassa Duchesne). Botrytis cinerea Pers.:Fr, was isolated from commercial grape (Vitis vinifera L.) and Fusarium oxysporum Schlechtend:Fr from orchid (Cynoches sp.) by David E. Wedge, USDA ARS Natural Products Utilization Research Unit. Phomopsis viticola (Sacc.) and P. obscurans (Ellis & Everh.) Sutton were from Mike A. Ellis, Ohio State University, Wooster, Ohio. Fungi were grown on potato-dextrose agar (PDA, Difco, Detroit Mich.) in 9 cm petri dishes and incubated in a growth chamber at 24±2° C. and under cool-white fluorescent lights ([…]·m^−2·sec^−1 light) with 12-h photoperiod.
# (§2) Inoculum preparation. Conidia were harvested from 7–10 day-old cultures by flooding plates with 5 mL of sterile distilled water and dislodging conidia by softly brushing the colonies with an L-shaped glass rod. Conidial suspensions were filtered through sterile miracloth (Calbiochem-Novabiochem Corp., La Jolla Calif.) to remove mycelia. Conidia concentrations were determined photometrically, from a standard curve based on the absorbance at 625 nm and suspensions were then adjusted with sterile distilled water to a concentration of 1.0×10^6 conidia/mL.
# (§3) Microtiter assay. A standardized 96-well microtiter plate assay developed for discovery of natural product fungicidal agents. A 96-well microtiter assay was used to determine sensitivity of B. cinerea, C. acutatum, C. fragariae, C. gloeosporioides, F. oxysporum, Phomopsis viticola, and P. obscurans to the various antifungal agents in comparison with known fungicidal standards. Vinclozolin, captan, and thiabendazole, which represent three different modes of action, were used as standards in this experiment. Each fungus was challenged in a dose-response format using test compounds where the final treatment concentrations were 0.3, 3.0 and 30.0 μM. Microtiter plates (Nunc MicroWell, untreated; Roskilde, Denmark) were covered with a plastic lid and incubated in a growth chamber at 24±1 C and 12 h photoperiod under 60±5 μmol light. Growth was then evaluated by measuring absorbance of each well at 620 nm using a microplate photometer (Packard Spectra Count, Packard Instrument Co., Downers Grove, Ill.).
# (§4) Microbioassay Experimental Design. Chemical sensitivity of each fungus 96-well microtiter assay is used to determine sensitivity of B. cinerea, C. acutatum, C. fragariae, C. gloeosporioides, F. oxysporum, Phomopsis viticola, and P. obscurans. Each chemical is evaluated in duplicate at each dose (0.3, 3.0 and 30.0 μM) and repeated twice in time. Sixteen wells containing broth and inoculum serves as positive controls, eight wells containing solvent at the appropriate concentration and broth without inoculum are used as negative controls. Mean absorbance values and standard errors is used to evaluate fungal growth at 48 hrs and 72 hrs except for P. obscurans and P. viticola the data are recorded at 120 hrs. […] Treatments are arranged as a split-plot design replicated twice in time. Whole-plots were fungal isolates and sub-plots are chemicals. Each dose level and response time is analyzed separately. […]
# [2] = test system: Colletotrichum fragariae; experiment: 96-well microtiter fungal growth assay;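 also: percent relative to untreated positive growth controls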
# Text: as §1, §2, §3, §4
# [3] = test system: Botrytis cinerea; experiment: 96-well microtiter fungal growth assay;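 also: percent relative to untreated positive growth controls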
# Text: as §1, §2, §3, §4
# [4] = test system: Colletotrichum acutatum; experiment: 96-well microtiter fungal growth assay;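 also: percent relative to untreated positive growth controls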
# Text: as §1, §2, §3, §4
# [5] = test system: Colletotrichum gloeosporioides; experiment: 96-well microtiter fungal growth assay;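 also: percent relative to untreated positive growth controls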
# Text: as §1, §2, §3, §4
# [6] = test system: Phomopsis viticola; experiment: 96-well microtiter fungal growth assay;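 also: percent relative to untreated positive growth controls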
# Text: as §1, §2, §3
# (§5) Microbioassay Experimental Design. Chemical sensitivity of each fungus 96-well microtiter assay is used to determine sensitivity of B. cinerea, C. acutatum, C. fragariae, C. gloeosporioides, F. oxysporum, Phomopsis viticola, and P. obscurans. Each chemical is evaluated in duplicate at each dose (0.3, 3.0 and 30.0 μM) and repeated twice in time. Sixteen wells containing broth and inoculum serves as positive controls, eight wells containing solvent at the appropriate concentration and broth without inoculum are used as negative controls. […] Treatments are arranged as a split-plot design replicated twice in time. Whole-plots were fungal isolates and sub-plots are chemicals. Each dose level and response time is analyzed separately. The SAS system's analysis of variance procedure (Statistical Analysis System, Cary, N.C.) is used to identify significant factors and Fisher's protected LSD is used to separate means.
# [7] = test system: Phomopsis obscurans; experiment: 96-well microtiter fungal growth assay
# Text: as §1, §2, §3, §5
# [8] = test system: Azole-susceptible and Azole-resistant Candida albicans Strains; experiment: Antifungal activity against azole-susceptible and azole-resistant patient isolates; conditions: for IC50 / IC80: Candida albicans
# Procedure: Antimicrobial Assay. Susceptibility testing is performed using a modified version of the National Committee for Clinical Laboratory Standards methods. M intracelluare is tested using a modified method of Franzblau, et al. Seventy-two to 96 h prior to the assay, the M intracellulare subculture is prepared by resuspending cells from the surface of the slant in Middlebrook 7H9 broth with OADC enrichment and incubating at 37° C. and 10% CO2. On the day of the assay, prepared samples (dissolved in DMSO) are serially-diluted using 20%/0.9% DMSO/saline and transferred in duplicate to 96 well flat bottom microplates. Candida spp. and C. neoformans inocula are prepared by picking 1–3 colonies from agar plates and resuspending in ˜5 mL 0.9% sterile saline. The absorption of 10011 of the saline suspensions and the M. intracellulare subculture at 630 nm using the EL-340 Biokinetics Reader (Bio-Tek Instruments, Vermont) is compared either the 0.5 McFarland standard of 0.03 (Mi) or standard curves. The microorganisms are diluted in broth [RPMI 1640/2% dextrose/MOPS at pH 7.3 (Cellgro) for Candida spp., Sabouraud Dextrose for C. neoformans, and 5% Alamar Blue™(BioSource International, Camarillo, Calif.) in Middlebrook 7H9 broth with OADC enrichment, pH=7.3 for M. intracellulare to afford final target inocula of: Candida spp.: 1.0×10^4, C. neoformans: 1.0×10^5, and M. intracellulare: 2.0×10^6 after addition to the samples. The microbial inocula are added to the samples to achieve a final volume of 200 μl. Growth (saline only), solvent and blank (media only) controls are included on each test plate. Drug controls [Ciprofloxacin (ICN Biomedicals, Ohio) for bacteria and Amphotericin B (ICN Biomedicals, Ohio) for fungi] are included in each assay. All organisms are read at either 630 nm using the EL-340 Biokinetics Reader (Bio-Tek Instruments, Vermont) or 544ex/590em, (M. intracellulare) using the Polarstar Galaxy Plate Reader (BMG LabTechnologies, Germany) prior to and after incubation: Candida spp. at 37° C. for 18–24 h, C. neoformans at 30° C. for 72 h, and M. intracellulare at 37° C. and 10% CO2 for 72 h. Percent growth is calculated and plotted versus test concentration to afford the IC50 (sample concentration that affords 50% growth of the organism) and the minimum inhibitory concentration (MIC) and minimum fungicidal or bactericidal concentrations (MFC/MBCs). The MIC is defined as the lowest test concentration that allows no detectable growth (for M. intracellulare no color change from blue to pink). Minimum fungicidal or bactericidal concentrations are determined by removing 5 μl from each clear (or blue) well, transferring to agar and incubating as previously mentioned. The MFC/MBC is defined as the lowest test concentration that kills 100% of the organism (allows no growth on agar).
# The bioassay method is a modified version of the National Committee for Clinical Laboratory Standards methods, and is same as the one described in example 8 by which the biological data of compounds 1 and 2 (Tables 1 and 2) were obtained, except that the pH of the culture media for Candida spp. was changed from 7.3 to 4.5.
# [9] = Isolate 1, azole-susceptible strain (first listing, r6)
# [10] = Isolate 1, azole-susceptible strain (second listing, r10)
# [11] = Isolate 2, azole-resistant strain
# [12] = Isolate 5, azole-resistant strain
# [13] = Isolate 8, azole-resistant strain
# [14] = Isolate 17, azole-resistant strain
smiles,measurement,setting,value
Cc1cc(C2CC2)nc(Nc2ccccc2)n1 [Cyprodinil],Mean percent fungal growth inhibition of Fusarium oxysporum,"[1]; 0.3 μm, 48 hrs",16.4 ± 3.9%
same,Mean percent fungal growth inhibition of Fusarium oxysporum,"[1]; 0.3 μm, 72 hrs",7.9 ± 2.9%
same,Mean percent fungal growth inhibition of Fusarium oxysporum,"[1]; 3.0 μm, 48 hrs",2.6 ± 2.6%
same,Mean percent fungal growth inhibition of Fusarium oxysporum,"[1]; 3.0 μm, 72 hrs",1.8 ± 2.7%
same,Mean percent fungal growth inhibition of Fusarium oxysporum,"[1]; 30 μm, 48 hrs",−67.4 ± 4.3%
same,Mean percent fungal growth inhibition of Fusarium oxysporum,"[1]; 30 μm, 72 hrs",−41.5 ± 5.1%
same,Mean percent fungal growth inhibition of Colletotrichum fragariae,"[2]; 0.3 μm, 48 hrs",−94.1 ± 1.4%
same,Mean percent fungal growth inhibition of Colletotrichum fragariae,"[2]; 0.3 μm, 72 hrs",−54.1 ± 19.3%
same,Mean percent fungal growth inhibition of Colletotrichum fragariae,"[2]; 3.0 μm, 48 hrs",−89.0 ± 1.6%
same,Mean percent fungal growth inhibition of Colletotrichum fragariae,"[2]; 3.0 μm, 72 hrs",−76.7 ± 4.7%
same,Mean percent fungal growth inhibition of Colletotrichum fragariae,"[2]; 30 μm, 48 hrs",−95.5 ± 0.5%
same,Mean percent fungal growth inhibition of Colletotrichum fragariae,"[2]; 30 μm, 72 hrs",−92.5 ± 3.2%
same,Mean percent fungal growth inhibition of Botrytis cinerea,"[3]; 0.3 μm, 48 hrs",−96.6 ± 2.3%
same,Mean percent fungal growth inhibition of Botrytis cinerea,"[3]; 0.3 μm, 72 hrs",26.56 ± 14.1%
same,Mean percent fungal growth inhibition of Botrytis cinerea,"[3]; 3.0 μm, 48 hrs",−90.2 ± 3.3%
same,Mean percent fungal growth inhibition of Botrytis cinerea,"[3]; 3.0 μm, 72 hrs",−81.4 ± 9.2%
same,Mean percent fungal growth inhibition of Botrytis cinerea,"[3]; 30 μm, 48 hrs",−94.2 ± 2.1%
same,Mean percent fungal growth inhibition of Botrytis cinerea,"[3]; 30 μm, 72 hrs",−96.2 ± 1.5%
same,Mean percent fungal growth inhibition of Colletotrichum acutatum,"[4]; 0.3 μm, 48 hrs",−102.2 ± 0.9%
same,Mean percent fungal growth inhibition of Colletotrichum acutatum,"[4]; 0.3 μm, 72 hrs",−94.5 ± 4.4%
same,Mean percent fungal growth inhibition of Colletotrichum acutatum,"[4]; 3.0 μm, 48 hrs",−98.1 ± 0.7%
same,Mean percent fungal growth inhibition of Colletotrichum acutatum,"[4]; 3.0 μm, 72 hrs",−98.3 ± 0.6%
same,Mean percent fungal growth inhibition of Colletotrichum acutatum,"[4]; 30 μm, 48 hrs",−99.7 ± 0.7%
same,Mean percent fungal growth inhibition of Colletotrichum acutatum,"[4]; 30 μm, 72 hrs",−99.0 ± 0.3%
same,Mean percent fungal growth inhibition of Colletotrichum gloeosporoides,"[5]; 0.3 μm, 48 hrs",−89.9 ± 2.7%
same,Mean percent fungal growth inhibition of Colletotrichum gloeosporoides,"[5]; 0.3 μm, 72 hrs",−62.9 ± 9.3%
same,Mean percent fungal growth inhibition of Colletotrichum gloeosporoides,"[5]; 3.0 μm, 48 hrs",−85.4 ± 6.6%
same,Mean percent fungal growth inhibition of Colletotrichum gloeosporoides,"[5]; 3.0 μm, 72 hrs",−76.4 ± 6.3%
same,Mean percent fungal growth inhibition of Colletotrichum gloeosporoides,"[5]; 30 μm, 48 hrs",−95.1 ± 1.0%
same,Mean percent fungal growth inhibition of Colletotrichum gloeosporoides,"[5]; 30 μm, 72 hrs",−91.1 ± 1.6%
same,Mean percent fungal growth inhibition of Phomopsis viticola,"[6]; 0.3 μm, 120 hrs",−219 ± 122.1%
same,Mean percent fungal growth inhibition of Phomopsis viticola,"[6]; 3.0 μm, 120 hrs",−184.6 ± 87.0%
same,Mean percent fungal growth inhibition of Phomopsis viticola,"[6]; 3.0 μm, 144 hrs",451.7 ± 331.5%
same,Mean percent fungal growth inhibition of Phomopsis viticola,"[6]; 30 μm, 120 hrs",−176.2 ± 48.2%
same,Mean percent fungal growth inhibition of Phomopsis viticola,"[6]; 30 μm, 144 hrs",80.4 ± 111.6%
same,Percent change in fungal growth vs control (negative = inhibition),"[7]; 0.3 μm, 120 hrs",−51.4 ± 5.9%
same,Percent change in fungal growth vs control (negative = inhibition),"[7]; 0.3 μm, 144 hrs",−46.3 ± 6.0%
same,Percent change in fungal growth vs control (negative = inhibition),"[7]; 3.0 μm, 120 hrs",−64.5 ± 10.7%
same,Percent change in fungal growth vs control (negative = inhibition),"[7]; 3.0 μm, 144 hrs",−72.6 ± 3.9%
same,Percent change in fungal growth vs control (negative = inhibition),"[7]; 30 μm, 120 hrs",−86.8 ± 1.3%
same,Percent change in fungal growth vs control (negative = inhibition),"[7]; 30 μm, 144 hrs",−81.5 ± 2.5%
"OC(Cn1cncn1)(Cn1cncn1)c1ccc(F)cc1F [Fluconazole, reference compound]",IC50,[8]; [9],1 µg/mL
same,IC80,[8]; [9],1.5 µg/mL
same,IC50,[8]; [10],0.1 µg/mL
same,IC80,[8]; [10],0.2 µg/mL
same,IC50,[8]; [11],1 µg/mL
same,IC80,[8]; [11],5 µg/mL
same,IC50,[8]; [12],7.5 µg/mL
same,IC80,[8]; [12],10 µg/mL
same,IC50,[8]; [13],15 µg/mL
same,IC80,[8]; [13],20 µg/mL
same,IC50,[8]; [14],40 µg/mL
same,IC80,[8]; [14],95 µg/mL
same,IC95,[8]; [9],2.00 µg/mL
same,IC95,[8]; [10],100.00 µg/mL
same,IC95,[8]; [11],10.00 µg/mL
same,IC95,[8]; [12],10.00 µg/mL
same,IC95,[8]; [13],25.00 µg/mL
same,Decreases in susceptibility to fluconazole of the isolates,[8]; resistant isolates relative to susceptible strain,up to 400 fold
CCCCNC(=O)n1c(NC(=O)OC)nc2ccccc21 [benomyl],IC50,"[7]; Paraphomopsis obscurans, 120 h, read-out: IC50 (growth inhibition)",< 6.25 µM
